{"source": "paper PMC9323733", "about": "“Efficacy of Vafidemstat in Experimental Autoimmune Encephalomyelitis Highlights the KDM1A/RCOR1/HDAC Epigenetic Axis in Multiple Sclerosis” (Pharmaceutics, 2022)", "key": {"[1]": {"tested_on": "SMI-32 positive motoneurons in spinal cord explants", "assay": "Spinal cord organotypic cultures, chronic excitotoxicity (THA)", "type": "cell-based, rat", "conditions": "ORY-2001 5, 25 and 125 nM, THA 100 µM", "description": "Lumbar spinal cords were aseptically obtained from 8-day-old Sprague-Dawley rat pups previously euthanized by pentobarbital overdose. The tissue was placed in ice-cold high glucose containing (6.4 mg/mL) Gey’s Balanced Salt Solution (GBSS). Meninges and roots were removed, and the spinal cord was transversely sectioned into 350 µm thick slices with a McIlwain Tissue Chopper. Four slices were carefully transferred onto 30-mm-diameter Millicell-CM membranes (0.4 µm, Millipore, Billerica, MA, USA) into a 6-well plate (35-mm-diameter, Falcon) containing 1 mL of incubation medium [50% (v/v) minimal essential medium (MEM), 25 mM Hepes, 25% (v/v) heat- inactivated horse serum, 2 mM glutamine and 25% (v/v) Hank’s Balanced Salt Solution (HBSS) supplemented with 25.6 mg/mL glucose; pH 7.2. Cultures were allowed to stabilize for 1 week at 37 °C in a 5% CO2/95% air humidified environment, and thereafter medium was changed twice per week. After 7 days of the explant culture, chronic glutamate excitotoxicity was induced by exposure at DL-threo-β-hydroxyaspartic acid (THA; 100 µM; Sigma-Aldrich, Saint Louis, MO, USA). […] Motoneurons, identified by SMI-32 immunostaining and localization in the ventral horn, were counted by using the Cell Counter plugin of ImageJ software. A minimum of 12 sections were evaluated for each experimental condition."}, "[2]": {"tested_on": "spinal cord and brain of EAE mice", "assay": "qRT-PCR validation of microarray biomarkers, spinal cord and brain of EAE mice", "type": "in vivo, mouse", "description": "We evaluated differences in gene expression induced by the treatment using real-time PCR and by microarray hybridization analysis. First, total RNA was isolated from brain and spinal cord segments from EAE mice using Qiazol™ and the RNeasy MiniKit™ extraction kit (Qiagen). Evaluation of RNA quality was performed with the Agilent 2100 bioanalyzer and NanoDrop™ ND-1000 (Thermo Scientific, Dartford, Kent, UK). After DNAse I treatment, RNA (1 µg/sample) was reverse transcribed using RevertAid First strand cDNA Synthesis kit (Fermentas) and random hexamer primers. For evaluating the expression of the inflammatory markers TNFα, IL-1β, IP10, IL-4, and CCL5, real time PCR was performed by using iQ SYBR Green Supermix (Bio-Rad, Feldkirchen, Germany) according to manufacturer’s instructions in a BIORAD CFX96 thermal cycler. Primer sequences and PCR conditions are indicated in Supplementary Materials Table S3. […]\nFor the gene expression studies, data from microarray assays were normalized by modified nonlinear Q-splines normalization method and Log2(Sample/Vehicle) values calculated without background correction (which permits robust selection of differentially expressed genes yet may lead to sub-estimation of the magnitude of change for genes expressed near the detection limit). Differential expression was assessed with the proprietary Polyphemus software using robust statistics on the average technical replicates (3 replicates/gene oligo datapoint) after removing eventual outlier points (caused by dust or array imperfections). […] The p values were calculated after outlier elimination based on the absolute value of the regularized t-statistics, which uses a Bayesian framework to derive the algorithm, using internal replicated controls to assess the minimum technical variability of the process. Correlation between gene expression changes induced by different treatments was analysed by calculating the Pearson correlation coefficient r using the Log2(Treatment/Veh) values for all genes expressed above background level (n). […]"}}}
{"compound": "Nc1nnc(CN[C@@H]2C[C@H]2c2ccc(OCc3ccccc3)cc2)o1", "note": "[ORY-2001]", "values": [{"measurement": "protection of motoneurons compared with riluzole (5 µM)", "setting": "[1]", "result": "outperformed the effect exerted by riluzole"}, {"measurement": "survival of SMI32 positive motoneurons challenged with THA", "setting": "[1]; to 28 DIV", "result": "protected the motoneurons from chronic excitotoxic stress at all doses tested"}, {"measurement": "Ttr upregulation in spinal cord, check by qRT-PCR", "setting": "[2]; increased pooled value came from a single outlier sample", "result": "discarded as a biomarker"}, {"measurement": "expression of Saa3, Aif1 and Gbp2 (qRT-PCR)", "setting": "[2]; spinal cord and brain, effector phase", "result": "downregulated the inflammatory biomarkers Saa3, Aif1 and Gbp2"}, {"measurement": "expression of Ccl5, Ip10 and Tnf-alpha (qRT-PCR)", "setting": "[2]; spinal cord and brain, sub-chronic period", "result": "downregulated"}]}
